Earlier results, collected in patent publication US20100172993A1, “PARTICLES FOR DELIVERY OF ACTIVE INGREDIENTS, PROCESS OF MAKING AND COMPOSITIONS THEREOF” (priority 2006, published 2010).

Conditions: topical insect repellent

## CCN(CC)C(=O)c1ccccc1 [NN Diethyl Benzamide]
  Absorption of the active ingredient in the blood plasma after dermal application: no absorption of the active ingredient in the blood plasma
